The source of these data is PubChem BioAssay (NCI).

What all share (test): inhibition of tumour cell growth, NCI panel, 48 h
For assay [1], the system named is SK-MEL-2 melanoma.
In assay [2] the test system is COLO 205 colon.
The subject of assay [3] is MOLT-4 leukemia.
In assay [4] the test system is SF-295 CNS.
Assay [5] concerns A549 NSCLC.
Assay [6] has as its system IGROV1 ovarian.
Assay [7] has as its system U251 CNS.
Assay [8] has as its system SF-268 CNS.
The subject of assay [9] is SNB-19 CNS.
Assay [10] has as its system UACC-62 melanoma.

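Cells were grown in 96-well plates and exposed to each compound for 48 hours at five concentrations; endpoints were interpolated linearly between bracketing concentrations, or set to the highest concentration if not reached. At the GI50, growth is halved. TGI denotes the concentration required for complete inhibition of growth.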

Take `O=[N+]([O-])c1cccc([I+]c2ccccc2)c1`: the GI50 in assay [1] was 17.8 µM; in [2] it was 10.1 µM; in assay [3], 3.4 µM; in [4] it was 10.9 µM; in [5] it was 3.46 µM; in assay [6] it was 5.29 µM. Also, the GI50 was 6.39 µM in assay [7], 7.3 µM in [8] and 13.4 µM in assay [9]. Further, the TGI in assay [1] amounted to 35.2 µM; in assay [2], 33.6 µM; in assay [3], 39 µM; in assay [4] it was 25.6 µM; in [5] it was 24.1 µM; in assay [6], 27 µM. Also, the TGI was found to be 20.3 µM in assay [7], 21.2 µM in assay [8] and 26.5 µM in [9].
For `Cc1ccnc(NC(c2ccccc2)c2ccc3cccnc3c2O)c1` (centres undefined), the GI50 in assay [2] is 14.3 µM; in [3], 2.53 µM; in [10], 4.42 µM; in assay [4] it was 2.42 µM; in assay [5] it was 3.99 µM; in assay [6] it was 2.33 µM. In addition, the GI50 is 2.85 µM in [7], 2.93 µM in assay [8] and 6.28 µM in assay [9]. Besides, the TGI in [2] was 73.4 µM; in [3], more than 100 µM; in assay [10], 87.9 µM; in assay [4], 16.3 µM; in assay [5], 45.1 µM; in assay [6], 23.3 µM. Further, the TGI in assay [7] was 12.7 µM; in assay [8], 21.5 µM; in assay [9], more than 100 µM.
Take `c1cnc2nc3n(c2c1)CSC3`: the TGI in assay [1], in assay [2], in [3], in [10], in assay [4] and in assay [5] was more than 100 µM throughout. Also, the TGI in [6], in assay [7] and in assay [8] was more than 100 µM throughout.
Take `COC(=O)Cc1nn2c(nc1=O)sc1ccc3ccccc3c12`: the TGI in assay [1] was more than 100 µM; in [2], more than 100 µM; in assay [3] it was more than 100 µM; in [5] it was more than 100 µM; in assay [6], more than 100 µM; in [7] it was 74.1 µM. In assay [9], this compound had a TGI of more than 100 µM.
On to `CN(CC1NCCCC1O)C12CC3CC(CC(C3)C1)C2` (centres undefined), for which the TGI in assay [2], in assay [3], in assay [10], in [4], in assay [5] and in assay [6] was more than 100 µM each time. Further, the TGI in [7], in assay [8] and in assay [9] was more than 100 µM each time.
For `COc1cc(CC(=O)c2cc3c(cc2-c2ccccc2)OCO3)cc(OC)c1OC`, the TGI in [1], in assay [2], in assay [3], in assay [4], in assay [5] and in [6] was more than 100 µM in each case. The TGI in assay [7], in [8] and in assay [9] was more than 100 µM throughout.
Take `COC(=O)c1cc2c(nc1C)-c1ccccc1OS2(=O)=O`: the TGI in [2], in assay [3], in assay [10], in [4], in assay [5] and in [6] was more than 100 µM throughout. The TGI in [7], in [8] and in [9] was more than 100 µM in each case.
Turning to `CN(CCCCN)c1ccc2c(=O)[nH][nH]c(=O)c2c1`, the TGI in [1] was more than 100 µM; in assay [2], more than 100 µM; in assay [3], more than 100 µM; in assay [10], more than 77 µM; in assay [4], more than 100 µM; in [5] it was more than 100 µM. For the same compound, the TGI in assay [6] was more than 73.6 µM; in assay [7], more than 100 µM; in assay [8], more than 100 µM.
Turning to `COc1cc(OC)c(/C=C/C(=O)c2c(O)cc(OC)c(C3CCN(C)CC3)c2OC)c(OC)c1`, the GI50 in assay [1] is 1.78 µM; in [2], 1.8 µM; in assay [3], 1.63 µM; in [4], 1.56 µM; in [5], 1.57 µM; in assay [7], 1.27 µM. The GI50 in assay [8] is 1.63 µM; in assay [9] it was 1.78 µM. Further, the TGI in assay [1] was 3.24 µM; in assay [2] it was 3.23 µM; in [3], 3.61 µM; in assay [4], 2.98 µM; in assay [5], 2.97 µM; in assay [7], 2.52 µM. In addition, the TGI in assay [8] was found to be 3.29 µM; in [9], 3.81 µM.
`CCCCc1c2c(nc3c1CCCC3=O)CCCC2`: the TGI in assay [2], in assay [3], in assay [4], in assay [5], in assay [6] and in [7] was more than 100 µM throughout. Besides, the TGI in assay [8] and in assay [9] was more than 100 µM throughout.
Consider `COc1cc(=O)oc(/C=C/CO)c1C`, for which the TGI in assay [2], in assay [3], in assay [10], in assay [4], in [5] and in assay [6] was more than 100 µM in each case. Moreover, the TGI in [7], in assay [8] and in assay [9] was more than 100 µM each time.
For `NNc1ncnc2cccc(Cl)c12`, the TGI in assay [2], in assay [3], in assay [10], in assay [4], in assay [5] and in [6] was more than 100 µM in each case. For the same compound, the TGI in assay [7], in assay [8] and in [9] was more than 100 µM in each case.
Consider `COc1ccc(NC(=O)C2=CC(=O)c3ccc(O)cc3C2=O)c(OC)c1`, for which the TGI in assay [2], in assay [3], in [10], in assay [4], in [5] and in assay [6] was more than 100 µM each time. In addition, the TGI in [7], in assay [8] and in assay [9] was more than 100 µM throughout.
Take `Cc1cc(C)c(C2=NO[C@@H]3C(=O)N(c4ccc(Cc5ccc(N6C(=O)[C@H]7C(c8c(C)cc(C)cc8C)=NO[C@H]7C6=O)cc5)cc4)C(=O)[C@H]23)c(C)c1`: the TGI in assay [1], in assay [2], in assay [3], in assay [10], in assay [4] and in assay [5] was more than 100 µM each time. In addition, the TGI in assay [6] and in assay [8] was more than 100 µM in each case.
With `O=C(CC1(O)C(=O)Nc2ccc([N+](=O)[O-])cc21)c1ccc(Br)cc1` (centres undefined), the TGI in [1], in assay [2], in assay [3], in [10], in [4] and in assay [5] was more than 100 µM throughout. Besides, the values for the TGI in assay [7], in assay [8] and in assay [9] were 51 µM, more than 100 µM and more than 100 µM, respectively.
Regarding `C=CCCCC(O)c1ccc(C(O)c2cnc3ccccc3c2)o1` (centres undefined), the GI50 was 34.1 µM in assay [1]; 33.7 µM in assay [2]; 32.1 µM in [3]; 19.8 µM in assay [10]; 35.6 µM in assay [4]; 31 µM in assay [5]. Besides, the GI50 in assay [7] is 29.9 µM; in [8], 32.5 µM; in assay [9], 82.5 µM. In addition, the TGI in [1] was more than 100 µM; in [2], more than 100 µM; in assay [3], 82 µM; in [10], 39.8 µM; in [4] it was more than 100 µM; in assay [5], more than 100 µM. Moreover, the TGI in [7], in assay [8] and in assay [9] was more than 100 µM each time.
As for `O=[P+](O)c1cccnc1`, the TGI in [2], in assay [3], in [10], in assay [4], in [5] and in assay [6] was more than 100 µM in each case. The TGI in assay [7], in assay [8] and in assay [9] was more than 100 µM in each case.
As for `c1ccc(N2N=NC3C4CC(C5c6ccccc6C45)C32)cc1` (centres undefined), the TGI was more than 100 µM in [2]; 73.4 µM in assay [3]; more than 100 µM in assay [10]; more than 100 µM in assay [4]; more than 100 µM in assay [5]; more than 100 µM in assay [6]. Moreover, the TGI in assay [7], in [8] and in assay [9] was more than 100 µM each time.
On to `O=Cc1cn(S(=O)(=O)c2ccccc2)c2ccccc12`, for which the TGI is 53.1 µM in assay [3]; 86 µM in assay [10]; more than 100 µM in assay [4]; more than 100 µM in assay [5]; more than 100 µM in [6]; more than 100 µM in [7]. For the same compound, the TGI in [8] and in [9] was more than 100 µM throughout.
Regarding `CCOC(=O)CP(=S)(S)c1ccccc1` (centres undefined), the TGI in assay [1], in [2], in [3], in [10], in assay [5] and in assay [7] was more than 100 µM each time. Besides, the TGI in [8] and in assay [9] was more than 100 µM throughout.
Regarding `Cn1c2c(c3ccccc31)CCN(CCCN1CCN(c3ccccc3)CC1)C2=O`, the TGI is 37 µM in [2]; 36.7 µM in assay [3]; 37.4 µM in assay [10]; 37.8 µM in [4]; 61 µM in assay [5]; 38 µM in assay [6]. Moreover, the TGI is 30.2 µM in assay [7] and more than 100 µM in [8].
With `C/C(CC(=O)Nc1ccc([N+](=O)[O-])cc1)=N\Nc1ccc([N+](=O)[O-])cc1[N+](=O)[O-]`, the TGI in assay [1], in [2], in [3], in assay [10], in assay [4] and in assay [5] was more than 100 µM each time. The TGI in assay [6], in assay [7] and in assay [8] was more than 100 µM each time.
`C=C(C)[C@@H]1CC[C@]2(C(=O)N3CCN(C)CC3)CC[C@]3(C)[C@H](CC[C@@H]4[C@@]5(C)CC[C@H](O)C(C)(C)[C@@H]5CC[C@]43C)[C@@H]12`: the GI50 was 1.64 µM in assay [1]; 1.89 µM in [2]; 1.72 µM in assay [10]; 1.68 µM in [4]; 1.88 µM in [5]; 1.93 µM in assay [6]. The GI50 in [8] was 2.02 µM; in [9], 1.83 µM. In addition, the TGI in assay [1] was found to be 3.14 µM; in [2], 4.26 µM; in assay [10] it was 3.3 µM; in [4], 3.27 µM; in assay [5], 3.88 µM; in assay [6], 3.71 µM. The values for the TGI in assay [8] and in assay [9] were 4.42 µM and 3.92 µM, respectively.
Turning to `O=C(O)C1C2CCC(O2)C1C(=O)NCc1cccnc1` (centres undefined), the TGI in assay [1], in assay [2], in [10], in [4], in assay [5] and in assay [7] was more than 100 µM throughout. In assay [9], this compound returned a TGI of more than 100 µM.
On to `C1C[S][Ge]2([S]CCS1)[S]CCSCC[S]2`, for which the GI50 in assay [1], in [2], in [3], in assay [10], in assay [6] and in [8] was more than 100 µM in each case. The TGI in [1], in assay [2], in assay [3], in [10], in assay [6] and in [8] was more than 100 µM in each case.
Take `CC(C)=Cc1cc(C(=O)NCCNC(=O)c2cc(C=C(C)C)nc(NC#N)n2)nc(NC#N)n1`: the TGI in [2], in assay [3], in assay [10], in [4], in assay [5] and in [6] was more than 100 µM in each case. Moreover, the TGI in [7], in assay [8] and in assay [9] was more than 100 µM throughout.
